From US11963962B2, “Platelet count-agnostic methods of treating myelofibrosis” (Sierra Oncology, Inc., priority 2018, dated 2024)

Assays:
[1] = tested on: myelofibrosis; assay: SIMPLIFY-1 Phase 3 trial: total symptom score (TSS) response at week 24; assay type: in vivo, human; conditions: for TSS Responders / TSS proportion (Wilson 95% CI) / TSS Absolute risk difference (Newcombe 95% CI): SIMPLIFY 1, 24 weeks; for TSS Absolute risk difference (Newcombe 95% CI): MMB vs Control; for TSS response rate: SIMPLIFY 1, week 24
Description: In the SIMPLIFY-1 trial (NCT01969838), the efficacy and safety of MMB versus ruxolitinib (RUX) was studied in patients with myelofibrosis who were naïve to treatment with a JAK inhibitor and a platelet count of ≥50×10^9/L. Patients (N=432) with high risk or intermediate-2 risk or symptomatic intermediate-1 risk myelofibrosis received 24 weeks of treatment with 200 mg MMB once daily or 20 mg RUX twice a day (or per label), after which all patients could receive open-label momelotinib. […] The primary endpoint was a reduction by at least 35% in the spleen volume at 24 weeks compared with baseline.
(§1) FIG. 8A: SIMPLIFY-1 study of MMB in a first line population previously untreated with JAKi. For SIMPLIFY-1, the goal was non-inferiority over ruxolitinib (RUX) (MMB: N=215 subjects, and RUX: N=217 subjects). FIG. 8B: SIMPLIFY-2 study of second line population of anemic or thrombocytopenic subjects previously treated with RUX (red blood cell (RBC) transfusions on RUX=64%. RUX dose adjustment for: thrombocytopenia=21%; anemia/hematoma=35%). For SIMPLIFY-2, the goal was superiority over best available treatment (BAT) (MMB: N=104 subjects, and BAT: N=52 subjects). In both SIMPLIFY-1 and SIMPLIFY: Primary endpoint: >=35% reduction in spleen volume at 24 weeks. Secondary endpoints: Total symptom score (TSS) response at 24 weeks. Effects on RBC transfusion requirements.
The SIMPLIFY 1 clinical trial data was reanalyzed for subgroups of subjects having particular baseline platelet counts in the MMB versus RUX arms of the study.
Patient data was analyzed according to the following baseline platelet count (PLT) subgroups and in particular according to the threshold PLT of 150×10^9/L: 1) PLT<50×10^9/L; 2) 50×10^9/L≤PLT<100×10^9/L; 3) 100×10^9/L≤PLT<150×10^9/L. The reanalyzed data is presented in Table 13 (SIMPLIFY 1). Selected data is also illustrated in the following figures.

[2] = tested on: myelofibrosis; assay: SIMPLIFY-2 Phase 3 trial: transfusion independence and TD to TI conversion; assay type: in vivo, human; conditions: for TD to 12w rolling TI Absolute risk difference (Newcombe 95% CI) / TD to W24 TI Absolute risk difference (Newcombe 95% CI) / TI rate Absolute risk difference (Newcombe 95% CI): MMB vs Control
From the text: The improved outcome from MMB therapy that results from practicing the subject methods can be manifested as an improvement in one or more clinical endpoints (e.g., as described herein), such as anemia response, in spleen response and/or symptom response. By “anemia response” is meant an increase in the patient's hemoglobin level or a patient who was transfusion dependent becoming transfusion independent. Desirably, a minimum increase in hemoglobin of 0.5 g/dL, such as 1.0 g/dL 1.5 g/dL or 2.0 g/dL lasting a minimum of 8 weeks is achieved, which is the level of improvement specified in the International Working Group (IWG) consensus criteria. However, smaller, but still medically significant, increases in hemoglobin are also considered to be within the term “anemia response”. “Transfusion independence” is an anemia endpoint and refers to a subject who required no RBC transfusions over a 12 week period and had no hemoglobin levels less than 8 g/dL to 8.5 g/dL over the 12 week period. In some embodiments, the 12 week period of transfusion independence is the terminal 12 weeks of a 24 week study period. By red blood cell (RBC) transfusion independence rate at week 24 of a study is meant the proportion of subjects who were transfusion independent at week 24, excluding cases associated with clinically overt bleeding.
In the SIMPLIFY-2 trial (NCT02101268), the efficacy and safety of MMB was studied in anemic or thrombocytopenic subjects with myelofibrosis who were previously treated with ruxolitinib (RUX). […] Specifically, anemic or thrombocytopenic myelofibrosis patients who had and were previously treated with (RUX) (for at least 28 days) were studied over 24 weeks for response to MMB versus best available treatment (BAT), primarily RUX (89% of patients) but alternatively no treatment or other standard interventions, after which period all patients could receive extended MMB treatment. Previously treated RUX patients who either required red blood cell transfusions or RUX dose reduction with grade 3 thrombocytopenia, anemia, and/or bleeding at grade 3 or worse, with palpable spleen of at least 5 cm and without grade 2 or greater peripheral neuropathy were included in the trial. There was no lower limit for the required baseline platelet count. The primary endpoint was a reduction by at least 35% in the spleen volume at 24 weeks compared with baseline.
as §1
The SIMPLIFY 2 clinical trial data was reanalyzed for subgroups of subjects having particular baseline platelet counts in the MMB versus BAT arms of the study.
Patient data was analyzed according to the following baseline platelet count (PLT) subgroups and in particular according to a threshold PLT of 150×10^9/L: 1) PLT<50×10^9/L; 2) 50×10^9/L≤PLT<100×10^9/L; 3) 100×10^9/L≤PLT<150×10^9/L. The reanalyzed data is presented in Table 14 (SIMPLIFY 2).

[3] = SIMPLIFY 2, 50 ≤ PLT < 100 ×10^9/L
[4] = SIMPLIFY 2, 100 ≤ PLT < 150 ×10^9/L
[5] = SIMPLIFY-2, switch from Transfusion Dependent to Independent

## Cl.N#CCNC(=O)c1ccc(-c2ccnc(Nc3ccc(N4CCOCC4)cc3)n2)cc1 [MMB, N-(cyanomethyl)-4-(2-(4-morpholinophenylamino)pyrimidin-4-yl)benzamide]
[1]; 50 ≤ PLT < 100 ×10^9/L
  TSS Responders: 6
  TSS proportion (Wilson 95% CI): 0.33
  TSS Absolute risk difference (Newcombe 95% CI): 0.12
[1]; 100 ≤ PLT < 150 ×10^9/L
  TSS Responders: 7
  TSS proportion (Wilson 95% CI): 0.24
  TSS Absolute risk difference (Newcombe 95% CI): −0.15
[1]; ITT
  TSS Responders: 60
  TSS proportion (Wilson 95% CI): 0.28
  TSS Absolute risk difference (Newcombe 95% CI): −0.13
[1]; ITT, all patients
  TSS response rate: 28%
[1]; ITT, platelets 50-100 (subgroup 2)
  TSS response rate: 33%
[1]; ITT, platelets 100-150 (subgroup 3)
  TSS response rate: 24%
[1]; baseline TSS ≥ 6, all patients
  TSS response rate: 33%
[1]; baseline TSS ≥ 6, platelets 50-100 (subgroup 2)
  TSS response rate: 36%
[1]; baseline TSS ≥ 6, platelets 100-150 (subgroup 3)
  TSS response rate: 32%
[1]; baseline TSS ≥ 10, all patients
  TSS response rate: 33%
[1]; baseline TSS ≥ 10, platelets 50-100 (subgroup 2)
  TSS response rate: 36%
[1]; baseline TSS ≥ 10, platelets 100-150 (subgroup 3)
  TSS response rate: 32%
[1]; SIMPLIFY-1, overall
  Total Symptom Score (TSS) response: 28.4%
[1]; SIMPLIFY-1, MMB vs RUX
  TSS Noninferior Proportion Difference: 0.00 (−0.08, 0.08)
[2]; SIMPLIFY 2
  patients TI at week 24: 43%
  transfusion dependent (TD) patients at baseline who were TI at week 24: 32.8%
[2]; [3]
  TD to 12w rolling TI Responders: 7
  TD to 12w rolling TI proportion (Wilson 95% CI): 0.54
  TD to W24 TI Responders: 6
  TD to W24 TI proportion (Wilson 95% CI): 0.46
  TI rate Responders: 18
  TI rate proportion (Wilson 95% CI): 0.55
  TD to 12w rolling TI Absolute risk difference (Newcombe 95% CI): 0.27
  TD to W24 TI Absolute risk difference (Newcombe 95% CI): 0.37
  TI rate Absolute risk difference (Newcombe 95% CI): 0.15
[2]; [4]
  TD to 12w rolling TI Responders: 3
  TD to 12w rolling TI proportion (Wilson 95% CI): 0.23
  TD to W24 TI Responders: 4
  TD to W24 TI proportion (Wilson 95% CI): 0.31
  TI rate Responders: 10
  TI rate proportion (Wilson 95% CI): 0.42
  TD to 12w rolling TI Absolute risk difference (Newcombe 95% CI): 0.03
  TD to W24 TI Absolute risk difference (Newcombe 95% CI): 0.31
  TI rate Absolute risk difference (Newcombe 95% CI): 0.42
[2]; SIMPLIFY 2, ITT
  TD to 12w rolling TI Responders: 24
  TD to 12w rolling TI proportion (Wilson 95% CI): 0.41
  TD to W24 TI Responders: 19
  TD to W24 TI proportion (Wilson 95% CI): 0.33
  TI rate Responders: 45
  TI rate proportion (Wilson 95% CI): 0.43
  TD to 12w rolling TI Absolute risk difference (Newcombe 95% CI): 0.23
  TD to W24 TI Absolute risk difference (Newcombe 95% CI): 0.29
  TI rate Absolute risk difference (Newcombe 95% CI): 0.22
[2]; SIMPLIFY 2, PLT < 50 ×10^9/L
  TD to 12w rolling TI Responders: 3
  TD to 12w rolling TI proportion (Wilson 95% CI): 0.50
  TD to W24 TI Responders: 2
  TD to W24 TI proportion (Wilson 95% CI): 0.33
  TI rate Responders: 2
  TI rate proportion (Wilson 95% CI): 0.22
  TD to 12w rolling TI Absolute risk difference (Newcombe 95% CI): 0.50
  TD to W24 TI Absolute risk difference (Newcombe 95% CI): 0.33
  TI rate Absolute risk difference (Newcombe 95% CI): 0.22
[2]; SIMPLIFY 2, baseline platelet count subgroup 3 (100 to 150×10^9/L)
  transfusion dependence to independence conversion rate at week 24: 46%
[2]; [5]
  ≥8 week transfusion independence rate: 46.6%
  ≥12 week transfusion independence rate: 46.6%
